According to patent US20240217968A1, “PHARMACEUTICAL COMPOUND” (DUKE STREET BIO LIMITED, priority 2021, published 2024):

Target: T1, recombinant human Flag-tagged PARP7 (amino acids 456-657) (Homo sapiens, UniProt Q7Z3E1)
T1 construct: recombinant human Flag-tagged PARP7 (amino acids 456-657)
T1 sequence (Q7Z3E1 456-657): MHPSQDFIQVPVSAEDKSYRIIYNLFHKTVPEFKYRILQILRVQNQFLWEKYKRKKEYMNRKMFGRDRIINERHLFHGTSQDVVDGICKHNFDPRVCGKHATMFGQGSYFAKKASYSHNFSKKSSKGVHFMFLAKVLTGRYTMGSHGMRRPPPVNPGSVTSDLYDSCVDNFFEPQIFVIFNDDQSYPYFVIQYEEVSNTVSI
Assay: PARP7 biochemical DELFIA assay (auto-MARylation)
Details: DELFIA readout, IC50 class
Method in brief: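 Flag-PARP7 (456-657), 12.5-37.5 nM stock, captured on anti-FLAG wells, preincubated 30 min with compound, then auto-MARylated with biotin-NAD+ (15 μM stock) in HEPES pH 7.5/NaCl/DTT/BSA/Tween for 2-3 h at room temperature. NAD+ quench; Eu-streptavidin DELFIA read, Ex337/Em620 nm.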

Row | IC50 [µM] | Structure (SMILES)
1 | ≤ 0.1 | Cc1ccc(N2CCN(C(=O)CCOCC(C)n3nc(C(F)(F)F)c4c(=O)[nH]ncc43)CC2)nc1 (stereo not shown) [Compound 334]
2 | ≤ 0.1 | Cc1nn(C(C)COCCC(=O)N2CCN(c3ncc(Cl)cn3)CC2)c2cn[nH]c(=O)c12 (stereo not shown) [Compound 336]
3 | 1 to 10 | O=C(CCOCCn1ncc2c(=O)[nH]ncc21)N1CCN(c2ccc(C(F)(F)F)cc2)C(=O)C1 [Compound 337]
4 | ≤ 0.1 | N#Cc1cn(CCOCCC(=O)N2CCN(c3ncc(C(F)(F)F)cn3)CC2)c2cn[nH]c(=O)c12 [Compound 340]
5 | ≤ 0.1 | O=C(CCOCCn1cc(C(F)(F)F)c2c(=O)[nH]ncc21)N1CCN(c2nc(C(F)(F)F)cs2)CC1 [Compound 341]
6 | ≤ 0.1 | CC(COCCC(=O)N1CCN(c2ccc(C(F)F)cn2)CC1)n1nc(C(F)(F)F)c2c(=O)[nH]ncc21 (stereo not shown) [Compound 342]
7 | ≤ 0.1 | CC(COCCC(=O)N1CCN(c2ccc(C(F)F)cn2)CC1)n1nc(C(F)(F)F)c2c(=O)[nH]ncc21 (stereo not shown) [Compound 343]
8 | 0.1 to 1 | CC(COCCC(=O)N1CCN(c2noc(C(F)(F)F)n2)CC1)n1nc(C(F)(F)F)c2c(=O)[nH]ncc21 (stereo not shown) [Compound 345]
9 | ≤ 0.1 | CC(C)(COCCC(=O)N1CCN(c2ncc(C(F)(F)F)cn2)CC1)n1nc(C(F)(F)F)c2c(=O)[nH]ncc21 [Compound 346]
10 | ≤ 0.1 | CC(COCCC(=O)N1CCN(c2ccc(F)cn2)CC1)n1nc(C(F)(F)F)c2c(=O)[nH]ncc21 (stereo not shown) [Compound 347]
11 | ≤ 0.1 | CC(COCCC(=O)N1CCN(c2ccc(F)cn2)CC1)n1nc(C(F)(F)F)c2c(=O)[nH]ncc21 (stereo not shown) [Compound 348]
12 | ≤ 0.1 | CC(COCCC(=O)N1CCN(c2ncc(F)cc2F)CC1)n1nc(C(F)(F)F)c2c(=O)[nH]ncc21 (stereo not shown) [Compound 349]
13 | ≤ 0.1 | CC(COCCC(=O)N1CCN(c2cc(C(F)(F)F)ccn2)CC1)n1nc(C(F)(F)F)c2c(=O)[nH]ncc21 (stereo not shown) [Compound 351]
14 | ≤ 0.1 | CC(COCCC(=O)N1CCN(c2cc(C(F)(F)F)ccn2)CC1)n1nc(C(F)(F)F)c2c(=O)[nH]ncc21 (stereo not shown) [Compound 352]
15 | ≤ 0.1 | CC(COCCC(=O)N1CCN(c2ncccc2C(F)(F)F)CC1)n1nc(C(F)(F)F)c2c(=O)[nH]ncc21 (stereo not shown) [Compound 353]
16 | 0.1 to 1 | CC(COCCC(=O)N1CCN(c2ncccc2C(F)(F)F)CC1)n1nc(C(F)(F)F)c2c(=O)[nH]ncc21 (stereo not shown) [Compound 354]
17 | ≤ 0.1 | CC(COCCC(=O)N1CCN(c2ncccc2Cl)CC1)n1nc(C(F)(F)F)c2c(=O)[nH]ncc21 (stereo not shown) [Compound 355]
18 | ≤ 0.1 | CC1(C)CN(C(=O)CCOCCn2cc(C(F)(F)F)c3c(=O)[nH]ncc32)CCN1c1ncc(C(F)(F)F)cn1 [Compound 358]
19 | ≤ 0.1 | O=C(CCOCCn1cc(C(F)(F)F)c2c(=O)[nH]ncc21)N1CCN(c2nc3cc(Cl)ccc3o2)CC1 [Compound 359]
20 | ≤ 0.1 | N#Cc1ccc2oc(N3CCN(C(=O)CCOCCn4cc(C(F)(F)F)c5c(=O)[nH]ncc54)CC3)nc2c1 [Compound 361]
21 | ≤ 0.1 | N#Cc1ccc2nc(N3CCN(C(=O)CCOCCn4cc(C(F)(F)F)c5c(=O)[nH]ncc54)CC3)oc2c1 [Compound 362]
22 | ≤ 0.1 | O=C(CCOCCn1cc(C(F)(F)F)c2c(=O)[nH]ncc21)N1CCN(c2nc(C(F)(F)F)co2)CC1 [Compound 363]

Row | IC50 [µM] | Structure (SMILES)
23 | ≤ 0.1 | O=C(CCOCCn1nc(C(F)(F)F)c2c(=O)[nH]ncc21)N1CCN(c2cc(C(F)(F)F)on2)CC1 [Compound 364]
24 | ≤ 0.1 | Cn1c(=O)n(CCOCCC(=O)N2CCN(c3ncc(C(F)(F)F)cn3)CC2)c2cn[nH]c(=O)c21 [Compound 367]
25 | ≤ 0.1 | CC(COCCC(=O)N1CCN(c2ncccc2F)CC1)n1nc(C(F)(F)F)c2c(=O)[nH]ncc21 (stereo not shown) [Compound 369]
26 | ≤ 0.1 | CC1CN(C(=O)CCOCCn2cc(C(F)(F)F)c3c(=O)[nH]ncc32)CCN1c1ncc(C(F)(F)F)cn1 (stereo not shown) [Compound 372]
27 | ≤ 0.1 | CC1CN(C(=O)CCOCCn2cc(C(F)(F)F)c3c(=O)[nH]ncc32)CCN1c1ncc(C(F)(F)F)cn1 (stereo not shown) [Compound 373]
28 | ≤ 0.1 | CC(COCCC(=O)N1CCN(c2ccc(Cl)cn2)CC1)n1cc(C(F)(F)F)c2c(=O)[nH]ncc21 (stereo not shown) [Compound 374]
29 | ≤ 0.1 | CC(COCCC(=O)N1CCN(c2ccc(C(F)(F)F)cn2)CC1)n1cc(C(F)(F)F)c2c(=O)[nH]ncc21 (stereo not shown) [Compound 376]
30 | ≤ 0.1 | CC(COCCC(=O)N1CCN(c2ccc(C(F)(F)F)cn2)CC1)n1cc(C(F)(F)F)c2c(=O)[nH]ncc21 (stereo not shown) [Compound 377]
31 | ≤ 0.1 | CC1(C)CN(c2ncc(C(F)(F)F)cn2)CCN1C(=O)CCOCCn1cc(C(F)(F)F)c2c(=O)[nH]ncc21 [Compound 378]
32 | ≤ 0.1 | O=C(CCOCCn1cc(C(F)(F)F)c2c(=O)[nH]ncc21)N1CCN(c2nc3ccccc3o2)CC1 [Compound 379]
33 | ≤ 0.1 | O=C(CCOCCn1cc(C(F)(F)F)c2c(=O)[nH]ncc21)N1CCN(c2nc3ccccc3[nH]2)CC1 [Compound 380]
34 | ≤ 0.1 | Cn1c(N2CCN(C(=O)CCOCCn3cc(C(F)(F)F)c4c(=O)[nH]ncc43)CC2)nc2ccccc21 [Compound 381]
35 | ≤ 0.1 | O=C(CCOCCn1cc(C(F)(F)F)c2c(=O)[nH]ncc21)N1CCN(c2nc3ccc(Cl)cc3o2)CC1 [Compound 382]
36 | ≤ 0.1 | O=C(CCOCCn1nc(C(F)(F)F)c2c(=O)[nH]ncc21)N1CCN(c2ncc(C(F)(F)F)o2)CC1 [Compound 383]
37 | ≤ 0.1 | O=C(CCOCCn1cc(C(F)(F)F)c2c(=O)[nH]ncc21)N1CCN(c2ncc(C(F)(F)F)o2)CC1 [Compound 384]
38 | ≤ 0.1 | CN(C(=O)COCCn1cc(C(F)(F)F)c2c(=O)[nH]ncc21)C1CCN(c2ncc(C(F)(F)F)cn2)CC1 [Compound 385]
39 | ≤ 0.1 | CC(COCCC(=O)N1CCN(c2ncc(C(F)(F)F)cn2)CC1)n1nc(C(F)(F)F)c2c(=O)[nH]ccc21 (stereo not shown) [Compound 388]
40 | ≤ 0.1 | CC(COCCC(=O)N1CCN(c2ncc(C(F)(F)F)cn2)CC1)n1nc(C(F)(F)F)c2c(=O)[nH]ccc21 (stereo not shown) [Compound 389]
41 | ≤ 0.1 | O=C(CCOCCn1nc(C(F)(F)F)c2c(=O)[nH]ncc21)N1CCN(c2nnc(C(F)(F)F)[nH]2)CC1 [Compound 391]
42 | 0.1 to 1 | CC(COCCC(=O)N1CCN(c2nnc(C(F)(F)F)[nH]2)CC1)n1nc(C(F)(F)F)c2c(=O)[nH]ncc21 (stereo not shown) [Compound 392]
43 | ≤ 0.1 | O=C(CCOCCn1nc(C(F)(F)F)c2c(=O)[nH]ncc21)N1CCN(c2ncc3c(n2)NCCC3)CC1 [Compound 394]
44 | ≤ 0.1 | CC(COCCC(=O)N1CCN(c2ncc(C(F)(F)F)cn2)CC1)n1c(=O)n(C)c2c(=O)[nH]ncc21 (stereo not shown) [Compound 397]

Row | IC50 [µM] | Structure (SMILES)
45 | ≤ 0.1 | CC(COCCC(=O)N1CCN(c2ncc(C(F)(F)F)cn2)CC1)n1c(=O)n(C)c2c(=O)[nH]ncc21 (stereo not shown) [Compound 398]
46 | 0.1 to 1 | CC(COCCC(=O)N1CCN(c2ncc(C(F)(F)F)cn2)CC1)c1ccc(Cl)c2c(=O)[nH]ncc12 (stereo not shown) [Compound 399]
47 | ≤ 0.1 | CC(COCCC(=O)N1CCN(c2ncc(C(F)(F)F)cn2)CC1)c1ccc(Cl)c2c(=O)[nH]ncc12 (stereo not shown) [Compound 400]
48 | ≤ 0.1 | O=C(CCOCCn1nc(C(F)(F)F)c2c(=O)[nH]c(=O)[nH]c21)N1CCN(c2ncc(C(F)(F)F)cn2)CC1 [Compound 401]
49 | ≤ 0.1 | Cc1nn(CCOCCC(=O)N2CCN(c3ncc(C(F)(F)F)cn3)CC2)c2[nH]c(=O)[nH]c(=O)c12 [Compound 402]
50 | ≤ 0.1 | O=C(CCOCCn1cc(C(F)(F)F)c2c(=O)[nH]c(=O)[nH]c21)N1CCN(c2ncc(C(F)(F)F)cn2)CC1 [Compound 403]
51 | ≤ 0.1 | Cc1cn(CCOCCC(=O)N2CCN(c3ncc(C(F)(F)F)cn3)CC2)c2[nH]c(=O)[nH]c(=O)c12 [Compound 404]
52 | ≤ 0.1 | O=C(c1cccc(Cn2nc(C(F)(F)F)c3c(=O)[nH]ncc32)c1)N1CCN(c2ncc(C(F)(F)F)cn2)CC1 [Compound 407]
53 | ≤ 0.1 | [2H]C([2H])(Cn1nc(C(F)(F)F)c2c(=O)[nH]ncc21)OCCC(=O)N1CCN(c2ncc(C#N)cn2)CC1 [Compound 408]
54 | ≤ 0.1 | [2H]C([2H])(Cn1nc(C(F)(F)F)c2c(=O)[nH]ncc21)OCCC(=O)N1CCN(c2ncc(C(F)(F)F)cn2)CC1 [Compound 409]
55 | ≤ 0.1 | O=C(CCOCCc1c(Cl)ccc2c(=O)[nH]ncc12)N1CCN(c2ncc(C(F)(F)F)cn2)CC1 [Compound 410]
56 | ≤ 0.1 | CC(COCCn1cc(C(F)(F)F)c2c(=O)[nH]ncc21)C(=O)N1CCN(c2ncc(C(F)(F)F)cn2)CC1 (stereo not shown) [Compound 412]
57 | ≤ 0.1 | O=C(CCOCCn1c(=O)ccc2c(=O)[nH]ncc21)N1CCN(c2ncc(C(F)(F)F)cn2)CC1 [Compound 413]
58 | ≤ 0.1 | CC(COCCC(=O)N1CCN(c2ncc(C#N)cn2)CC1)c1ccc(Cl)c2c(=O)[nH]ncc12 (stereo not shown) [Compound 415]
59 | ≤ 0.1 | CC(COCCC(=O)N1CCN(c2ccc(C#N)cn2)CC1)c1ccc(Cl)c2c(=O)[nH]ncc12 (stereo not shown) [Compound 417]
60 | ≤ 0.1 | [2H]C([2H])(OCCC(=O)N1CCN(c2ncc(C(F)(F)F)cn2)CC1)C(C)n1nc(C(F)(F)F)c2c(=O)[nH]ncc21 (stereo not shown) [Compound 422]
61 | ≤ 0.1 | O=C(CCOCC(F)(F)c1cccc2c(=O)[nH]ncc12)N1CCN(c2ncc(C(F)(F)F)cn2)CC1 [Compound 424]
62 | 0.1 to 1 | CC(C)(COCCC(=O)N1CCN(c2ncc(C(F)(F)F)cn2)CC1)c1cccc2c(=O)[nH]ncc12 [Compound 425]
63 | 1 to 10 | O=C(CCOCC(c1cccc2c(=O)[nH]ncc12)C(F)(F)F)N1CCN(c2ncc(C(F)(F)F)cn2)CC1 (stereo not shown) [Compound 426]
64 | ≤ 0.1 | N#Cc1nn(CCOCCC(=O)N2CCN(c3ncc(C(F)(F)F)cn3)CC2)c2cn[nH]c(=O)c12 [Compound 428]
